# Measured values from ChEMBL document CHEMBL3585293, “Design, antiviral and cytostatic properties of isoxazolidine-containing amonafide analogues” (Bioorg Med Chem, 2015).
# Test system: Vaccinia virus
# Assay: Antiviral activity against Vaccinia virus infected in HEL cells assessed as reduction of virus-induced cytopathogenicity
# Format: functional, organism-based
# Conditions: Orthopoxvirus vaccinia
row,Structure (SMILES),EC50 [µM]
1,CCOP(=O)(OCC)[C@@H]1C[C@H](C(=O)Nc2cc3c4c(cccc4c2)C(=O)N(CCN(C)C)C3=O)ON1C (racemic),> 45
2,CCOP(=O)(OCC)[C@@H]1C[C@@H](C(=O)Nc2cc3c4c(cccc4c2)C(=O)N(CCN(C)C)C3=O)ON1C (racemic),> 45
3,CCOP(=O)(OCC)[C@@H]1C[C@H](C(=O)Nc2cc3c4c(cccc4c2)C(=O)N(CCN2CCCC2)C3=O)ON1C (racemic),50
4,CCOP(=O)(OCC)[C@@H]1C[C@@H](C(=O)Nc2cc3c4c(cccc4c2)C(=O)N(CCN2CCCC2)C3=O)ON1C (relative stereo),> 45
5,Nc1nc2c(ncn2COCCO)c(=O)[nH]1 [ACYCLOVIR],> 250
6,O=c1[nH]c(=O)n([C@H]2C[C@H](O)[C@@H](CO)O2)cc1/C=C/Br [BRIVUDINE],17
7,Nc1ccn(C[C@@H](CO)OCP(=O)(O)O)c(=O)n1 [CIDOFOVIR],22
8,Nc1nc2c(ncn2COC(CO)CO)c(=O)[nH]1 [GANCICLOVIR],> 100
